For 30 molecules, IC50, EC50 and AC50 results are on record in ChEMBL document CHEMBL1201862, “PubChem BioAssay data set” (2004).

Assay [1] deals with T1, High affinity choline transporter 1 (Homo sapiens, UniProt Q9GZV3).
T1 sequence (Q9GZV3 whole entry): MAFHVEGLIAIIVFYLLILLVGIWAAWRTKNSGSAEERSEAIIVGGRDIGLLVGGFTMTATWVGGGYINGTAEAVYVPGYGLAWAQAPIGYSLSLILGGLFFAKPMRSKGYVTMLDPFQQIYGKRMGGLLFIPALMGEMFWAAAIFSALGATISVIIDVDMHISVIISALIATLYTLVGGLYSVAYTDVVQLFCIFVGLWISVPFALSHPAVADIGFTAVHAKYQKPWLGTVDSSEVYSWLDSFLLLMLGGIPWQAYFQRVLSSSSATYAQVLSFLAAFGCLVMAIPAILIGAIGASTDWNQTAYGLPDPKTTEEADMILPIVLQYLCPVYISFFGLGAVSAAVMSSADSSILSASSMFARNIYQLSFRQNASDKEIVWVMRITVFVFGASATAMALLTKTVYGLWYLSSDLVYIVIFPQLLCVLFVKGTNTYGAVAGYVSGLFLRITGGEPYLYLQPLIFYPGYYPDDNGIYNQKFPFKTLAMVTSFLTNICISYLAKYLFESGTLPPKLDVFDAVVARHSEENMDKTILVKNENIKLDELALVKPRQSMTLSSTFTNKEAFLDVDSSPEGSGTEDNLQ
The assay can be described thus: CHT inhibitors, dose response, cell-based, 5-point CRC, membrane potential dye (AID 504840). Format: functional.

Assay [2] has as its target Voltage-dependent T-type calcium channel subunit alpha-1H (Homo sapiens, UniProt O95180). Format: functional.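 Also: channel activity triggered by adding a high calcium stimulation buffer.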
For another assay, the target named is T2, Protein skinhead-1 (Caenorhabditis elegans, UniProt P34707).
T2 sequence (P34707 whole entry): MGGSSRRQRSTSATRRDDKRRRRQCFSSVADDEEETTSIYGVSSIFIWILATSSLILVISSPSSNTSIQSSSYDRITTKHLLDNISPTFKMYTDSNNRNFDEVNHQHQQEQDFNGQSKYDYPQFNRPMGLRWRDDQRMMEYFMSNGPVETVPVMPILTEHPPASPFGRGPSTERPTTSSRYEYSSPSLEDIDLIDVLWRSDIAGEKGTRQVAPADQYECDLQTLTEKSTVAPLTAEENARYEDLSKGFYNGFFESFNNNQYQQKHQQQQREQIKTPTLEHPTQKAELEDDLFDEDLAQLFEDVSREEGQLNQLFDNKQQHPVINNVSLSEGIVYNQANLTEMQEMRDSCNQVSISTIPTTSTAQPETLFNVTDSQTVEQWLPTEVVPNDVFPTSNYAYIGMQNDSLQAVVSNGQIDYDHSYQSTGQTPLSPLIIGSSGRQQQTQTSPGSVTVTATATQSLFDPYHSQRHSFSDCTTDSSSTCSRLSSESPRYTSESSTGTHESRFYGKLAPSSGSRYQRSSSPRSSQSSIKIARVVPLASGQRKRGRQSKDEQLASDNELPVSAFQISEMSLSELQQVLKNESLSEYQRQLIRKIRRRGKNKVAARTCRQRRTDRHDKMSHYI
Format: functional.

For assay [3], the target named is T3, Fatty acid synthase (Homo sapiens, UniProt P49327). The assay can be described thus: FAS thioesterase domain inhibitors, dose response, biochemical, endpoint fluorescence intensity, uHTS hits (AID 624327).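 Also: fluorescence from hydrolysis of an O-methyl fluorescein acyl ester substrate by the enzyme.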 It is filed as functional.
Assay [4] deals with T3, Fatty acid synthase. The assay can be described thus: FAS thioesterase domain inhibitors, dose response, biochemical, kinetic fluorescence intensity (AID 624326).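 Also: rate of fluorescence rise from hydrolysis of a fluorogenic O-methyl fluorescein ester substrate.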 Format: functional.
For assay [5], the target named is T4, Carboxy-terminal domain RNA polymerase II polypeptide A small phosphatase 1 (Homo sapiens, UniProt Q9GZU7).
T4 sequence (Q9GZU7 whole entry): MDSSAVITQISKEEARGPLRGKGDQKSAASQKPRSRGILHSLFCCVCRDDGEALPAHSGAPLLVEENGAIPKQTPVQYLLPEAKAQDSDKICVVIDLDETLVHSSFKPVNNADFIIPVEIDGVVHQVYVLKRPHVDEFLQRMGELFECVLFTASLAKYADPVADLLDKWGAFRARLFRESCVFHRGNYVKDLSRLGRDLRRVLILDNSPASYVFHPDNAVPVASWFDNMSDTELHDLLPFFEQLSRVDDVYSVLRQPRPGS
The experiment in a line: inhibitors of CTDSP1, concentration-response testing, biochemical assay, absorbance-based, actives from ultra-high-throughput screening (AID 540297). It is filed as functional.

Assay [6] concerns the target Heat shock protein HSP 90-alpha (Homo sapiens, UniProt P07900). It is filed as functional, organism-based.
The target in assay [7] is T5, Heat shock factor protein 1 (Mus musculus, UniProt P38532).
T5 sequence (P38532 whole entry): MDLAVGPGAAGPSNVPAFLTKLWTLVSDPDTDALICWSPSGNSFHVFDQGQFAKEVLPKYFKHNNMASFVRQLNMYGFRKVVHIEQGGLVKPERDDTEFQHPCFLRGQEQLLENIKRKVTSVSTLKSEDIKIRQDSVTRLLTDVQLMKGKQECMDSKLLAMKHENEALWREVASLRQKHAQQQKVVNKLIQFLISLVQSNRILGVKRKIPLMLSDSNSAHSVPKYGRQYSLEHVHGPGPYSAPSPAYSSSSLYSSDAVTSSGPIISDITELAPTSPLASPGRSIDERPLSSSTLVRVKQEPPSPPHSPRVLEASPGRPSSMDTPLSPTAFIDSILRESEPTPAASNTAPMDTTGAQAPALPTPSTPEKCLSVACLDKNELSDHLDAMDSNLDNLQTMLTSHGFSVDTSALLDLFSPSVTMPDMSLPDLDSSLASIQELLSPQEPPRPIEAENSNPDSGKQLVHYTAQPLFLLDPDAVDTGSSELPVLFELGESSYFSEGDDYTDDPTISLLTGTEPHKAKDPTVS
The experiment in a line: HSF1 potentiators in luciferase reporter cells, confirmation, cell-based, NIH3T3, luminescence, dose retest (AID 435004).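 Also: stress induced by proteasome inhibitor MG132 added 30 min after compound; luciferase reporter driven by HSF1 response element in NIH3T3 cells; actives raise luminescence as potentiators of the MG132 stress response.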 It is filed as functional. Background: A reporter such as luciferase makes a cellular process visible.

Assay [8] in a line: Shn3 3'UTR reporter inhibitors, dose response, cell-based, Clone20 osteoblasts, firefly luciferase, cherry-picked (AID 624132).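 Also: firefly luciferase luminescence from reporter carrying the Shn3 3'UTR in osteoblasts.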 Format: functional.
Assay [9] is described as follows: HepG2 cell cytotoxicity, dose response, cytotoxicity control for Shn3 inhibitor project, CellTiter-Glo, cherry-picked (AID 624134). Format: functional, cell-based.
Assay [10] is described as follows: control 3'UTR Renilla luciferase suppression, dose response, counter-screen for Shn3 inhibitor project, cell-based, Clone20-Shn3RL, cherry-picked (AID 624133). Format: functional. (In general: Counterscreens check selectivity or assay interference.)
The target of assay [11] is T6, Corticotropin-releasing factor receptor 2/Corticotropin-releasing factor-binding protein (Homo sapiens, UniProt P24387+Q13324).
T6 sequence (Q13324 whole entry): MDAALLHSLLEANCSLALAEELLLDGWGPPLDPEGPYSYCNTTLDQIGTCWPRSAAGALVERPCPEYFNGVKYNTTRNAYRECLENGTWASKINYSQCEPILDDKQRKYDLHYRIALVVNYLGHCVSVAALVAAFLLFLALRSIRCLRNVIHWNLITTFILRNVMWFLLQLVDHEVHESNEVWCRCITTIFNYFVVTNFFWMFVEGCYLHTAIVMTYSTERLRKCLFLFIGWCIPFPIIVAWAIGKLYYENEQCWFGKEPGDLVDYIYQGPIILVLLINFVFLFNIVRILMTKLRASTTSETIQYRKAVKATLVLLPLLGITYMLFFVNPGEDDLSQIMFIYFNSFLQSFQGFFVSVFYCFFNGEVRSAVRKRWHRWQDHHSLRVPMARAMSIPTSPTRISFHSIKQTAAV
T6 sequence (P24387 whole entry): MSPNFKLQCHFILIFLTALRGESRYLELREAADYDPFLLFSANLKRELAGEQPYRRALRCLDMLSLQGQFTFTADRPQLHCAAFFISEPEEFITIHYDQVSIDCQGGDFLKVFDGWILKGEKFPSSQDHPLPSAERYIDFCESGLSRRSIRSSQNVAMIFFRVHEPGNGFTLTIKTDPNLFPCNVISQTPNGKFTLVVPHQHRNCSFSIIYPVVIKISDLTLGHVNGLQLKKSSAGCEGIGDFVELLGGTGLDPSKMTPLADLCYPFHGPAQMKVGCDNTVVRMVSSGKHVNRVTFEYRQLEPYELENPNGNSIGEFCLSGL
The experiment in a line: activators of CRF receptor 2 with binding protein – uHTS hits, confirmation (AID 602473). It is filed as functional. As to conditions: read-out: EC50_Mean.

Another assay concerns the target Paired box protein Pax-8 (Homo sapiens, UniProt Q06710). The experiment in a line: inhibitors of PAX8-driven TPO luciferase reporter, dose response, RMG-I cells, cherry-pick (AID 687027).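 Also: luciferase reporter driven by Pax8 target thyroperoxidase promoter measured by SteadyGlo luminescence.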 Format: functional, cell-based.
Assay [12] can be described thus: Luminescence Cell-Based Dose Retest to Confirm Inhibitors of Cancer Stem Cells. [Related pubchem assays (depositor defined):AID2717, AID2721]. Format: functional. As to conditions: Homo sapiens.

Activity calls are given as the source filed them.

Voltage-dependent T-type calcium channel subunit alpha-1H, sequence (O95180 whole entry): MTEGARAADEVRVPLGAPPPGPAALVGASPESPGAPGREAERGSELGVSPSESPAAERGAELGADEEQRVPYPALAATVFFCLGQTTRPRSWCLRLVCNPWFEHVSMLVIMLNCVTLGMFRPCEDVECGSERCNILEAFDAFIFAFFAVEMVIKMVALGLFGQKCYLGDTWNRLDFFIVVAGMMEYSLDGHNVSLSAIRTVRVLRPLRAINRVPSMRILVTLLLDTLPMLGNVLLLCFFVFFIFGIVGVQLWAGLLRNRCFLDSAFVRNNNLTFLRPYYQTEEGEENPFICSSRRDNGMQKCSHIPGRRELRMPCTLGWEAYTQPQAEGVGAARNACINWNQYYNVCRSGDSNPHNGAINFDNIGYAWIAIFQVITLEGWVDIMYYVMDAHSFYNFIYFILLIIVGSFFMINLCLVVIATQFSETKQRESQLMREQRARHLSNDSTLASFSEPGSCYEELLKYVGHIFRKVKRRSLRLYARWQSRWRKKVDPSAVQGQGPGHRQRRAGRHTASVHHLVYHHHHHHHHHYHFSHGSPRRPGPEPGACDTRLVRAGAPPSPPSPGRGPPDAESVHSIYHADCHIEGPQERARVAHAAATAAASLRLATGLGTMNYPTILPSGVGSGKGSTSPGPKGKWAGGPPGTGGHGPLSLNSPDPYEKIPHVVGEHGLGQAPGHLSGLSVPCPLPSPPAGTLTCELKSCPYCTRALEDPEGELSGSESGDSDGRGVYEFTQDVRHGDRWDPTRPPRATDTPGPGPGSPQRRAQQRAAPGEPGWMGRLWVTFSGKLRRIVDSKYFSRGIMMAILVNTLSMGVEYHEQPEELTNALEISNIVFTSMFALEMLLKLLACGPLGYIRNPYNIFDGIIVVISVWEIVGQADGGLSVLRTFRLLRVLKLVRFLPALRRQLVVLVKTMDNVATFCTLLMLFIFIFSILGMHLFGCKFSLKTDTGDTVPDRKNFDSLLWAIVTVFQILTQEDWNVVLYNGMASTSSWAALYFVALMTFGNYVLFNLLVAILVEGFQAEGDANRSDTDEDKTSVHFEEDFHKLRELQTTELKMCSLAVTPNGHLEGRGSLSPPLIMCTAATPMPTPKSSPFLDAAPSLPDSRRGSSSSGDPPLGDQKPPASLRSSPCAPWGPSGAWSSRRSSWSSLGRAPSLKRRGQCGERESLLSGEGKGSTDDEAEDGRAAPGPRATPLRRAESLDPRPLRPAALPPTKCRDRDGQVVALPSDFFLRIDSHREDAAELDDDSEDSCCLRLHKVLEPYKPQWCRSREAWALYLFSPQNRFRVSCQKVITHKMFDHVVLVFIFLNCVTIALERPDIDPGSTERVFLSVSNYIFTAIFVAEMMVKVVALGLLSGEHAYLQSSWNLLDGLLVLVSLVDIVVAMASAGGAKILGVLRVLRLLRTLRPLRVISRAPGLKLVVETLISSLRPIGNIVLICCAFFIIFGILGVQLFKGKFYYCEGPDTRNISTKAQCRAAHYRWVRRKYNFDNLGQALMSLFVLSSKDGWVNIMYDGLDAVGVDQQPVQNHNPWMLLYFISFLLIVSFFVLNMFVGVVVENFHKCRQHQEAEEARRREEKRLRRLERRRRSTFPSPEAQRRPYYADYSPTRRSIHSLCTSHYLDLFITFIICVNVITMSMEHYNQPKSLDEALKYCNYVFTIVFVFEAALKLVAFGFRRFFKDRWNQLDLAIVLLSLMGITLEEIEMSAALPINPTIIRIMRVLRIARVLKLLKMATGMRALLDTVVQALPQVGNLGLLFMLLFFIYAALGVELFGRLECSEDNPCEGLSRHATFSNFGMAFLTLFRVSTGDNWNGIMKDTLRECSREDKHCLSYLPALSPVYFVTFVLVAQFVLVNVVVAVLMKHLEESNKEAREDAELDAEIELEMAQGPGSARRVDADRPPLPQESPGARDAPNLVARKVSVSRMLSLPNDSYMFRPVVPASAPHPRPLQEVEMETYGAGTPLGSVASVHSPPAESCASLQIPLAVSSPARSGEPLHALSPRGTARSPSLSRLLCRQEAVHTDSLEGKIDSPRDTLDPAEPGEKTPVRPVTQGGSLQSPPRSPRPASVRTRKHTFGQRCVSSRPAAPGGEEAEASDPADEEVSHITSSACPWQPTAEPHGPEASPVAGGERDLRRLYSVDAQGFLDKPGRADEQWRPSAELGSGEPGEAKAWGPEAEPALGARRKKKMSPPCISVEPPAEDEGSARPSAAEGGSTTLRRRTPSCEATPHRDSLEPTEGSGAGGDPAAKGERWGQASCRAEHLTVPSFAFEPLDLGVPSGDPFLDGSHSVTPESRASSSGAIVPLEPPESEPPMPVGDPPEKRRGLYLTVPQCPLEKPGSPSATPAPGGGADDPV
T3 sequence (P49327 whole entry, the tested form may be a part): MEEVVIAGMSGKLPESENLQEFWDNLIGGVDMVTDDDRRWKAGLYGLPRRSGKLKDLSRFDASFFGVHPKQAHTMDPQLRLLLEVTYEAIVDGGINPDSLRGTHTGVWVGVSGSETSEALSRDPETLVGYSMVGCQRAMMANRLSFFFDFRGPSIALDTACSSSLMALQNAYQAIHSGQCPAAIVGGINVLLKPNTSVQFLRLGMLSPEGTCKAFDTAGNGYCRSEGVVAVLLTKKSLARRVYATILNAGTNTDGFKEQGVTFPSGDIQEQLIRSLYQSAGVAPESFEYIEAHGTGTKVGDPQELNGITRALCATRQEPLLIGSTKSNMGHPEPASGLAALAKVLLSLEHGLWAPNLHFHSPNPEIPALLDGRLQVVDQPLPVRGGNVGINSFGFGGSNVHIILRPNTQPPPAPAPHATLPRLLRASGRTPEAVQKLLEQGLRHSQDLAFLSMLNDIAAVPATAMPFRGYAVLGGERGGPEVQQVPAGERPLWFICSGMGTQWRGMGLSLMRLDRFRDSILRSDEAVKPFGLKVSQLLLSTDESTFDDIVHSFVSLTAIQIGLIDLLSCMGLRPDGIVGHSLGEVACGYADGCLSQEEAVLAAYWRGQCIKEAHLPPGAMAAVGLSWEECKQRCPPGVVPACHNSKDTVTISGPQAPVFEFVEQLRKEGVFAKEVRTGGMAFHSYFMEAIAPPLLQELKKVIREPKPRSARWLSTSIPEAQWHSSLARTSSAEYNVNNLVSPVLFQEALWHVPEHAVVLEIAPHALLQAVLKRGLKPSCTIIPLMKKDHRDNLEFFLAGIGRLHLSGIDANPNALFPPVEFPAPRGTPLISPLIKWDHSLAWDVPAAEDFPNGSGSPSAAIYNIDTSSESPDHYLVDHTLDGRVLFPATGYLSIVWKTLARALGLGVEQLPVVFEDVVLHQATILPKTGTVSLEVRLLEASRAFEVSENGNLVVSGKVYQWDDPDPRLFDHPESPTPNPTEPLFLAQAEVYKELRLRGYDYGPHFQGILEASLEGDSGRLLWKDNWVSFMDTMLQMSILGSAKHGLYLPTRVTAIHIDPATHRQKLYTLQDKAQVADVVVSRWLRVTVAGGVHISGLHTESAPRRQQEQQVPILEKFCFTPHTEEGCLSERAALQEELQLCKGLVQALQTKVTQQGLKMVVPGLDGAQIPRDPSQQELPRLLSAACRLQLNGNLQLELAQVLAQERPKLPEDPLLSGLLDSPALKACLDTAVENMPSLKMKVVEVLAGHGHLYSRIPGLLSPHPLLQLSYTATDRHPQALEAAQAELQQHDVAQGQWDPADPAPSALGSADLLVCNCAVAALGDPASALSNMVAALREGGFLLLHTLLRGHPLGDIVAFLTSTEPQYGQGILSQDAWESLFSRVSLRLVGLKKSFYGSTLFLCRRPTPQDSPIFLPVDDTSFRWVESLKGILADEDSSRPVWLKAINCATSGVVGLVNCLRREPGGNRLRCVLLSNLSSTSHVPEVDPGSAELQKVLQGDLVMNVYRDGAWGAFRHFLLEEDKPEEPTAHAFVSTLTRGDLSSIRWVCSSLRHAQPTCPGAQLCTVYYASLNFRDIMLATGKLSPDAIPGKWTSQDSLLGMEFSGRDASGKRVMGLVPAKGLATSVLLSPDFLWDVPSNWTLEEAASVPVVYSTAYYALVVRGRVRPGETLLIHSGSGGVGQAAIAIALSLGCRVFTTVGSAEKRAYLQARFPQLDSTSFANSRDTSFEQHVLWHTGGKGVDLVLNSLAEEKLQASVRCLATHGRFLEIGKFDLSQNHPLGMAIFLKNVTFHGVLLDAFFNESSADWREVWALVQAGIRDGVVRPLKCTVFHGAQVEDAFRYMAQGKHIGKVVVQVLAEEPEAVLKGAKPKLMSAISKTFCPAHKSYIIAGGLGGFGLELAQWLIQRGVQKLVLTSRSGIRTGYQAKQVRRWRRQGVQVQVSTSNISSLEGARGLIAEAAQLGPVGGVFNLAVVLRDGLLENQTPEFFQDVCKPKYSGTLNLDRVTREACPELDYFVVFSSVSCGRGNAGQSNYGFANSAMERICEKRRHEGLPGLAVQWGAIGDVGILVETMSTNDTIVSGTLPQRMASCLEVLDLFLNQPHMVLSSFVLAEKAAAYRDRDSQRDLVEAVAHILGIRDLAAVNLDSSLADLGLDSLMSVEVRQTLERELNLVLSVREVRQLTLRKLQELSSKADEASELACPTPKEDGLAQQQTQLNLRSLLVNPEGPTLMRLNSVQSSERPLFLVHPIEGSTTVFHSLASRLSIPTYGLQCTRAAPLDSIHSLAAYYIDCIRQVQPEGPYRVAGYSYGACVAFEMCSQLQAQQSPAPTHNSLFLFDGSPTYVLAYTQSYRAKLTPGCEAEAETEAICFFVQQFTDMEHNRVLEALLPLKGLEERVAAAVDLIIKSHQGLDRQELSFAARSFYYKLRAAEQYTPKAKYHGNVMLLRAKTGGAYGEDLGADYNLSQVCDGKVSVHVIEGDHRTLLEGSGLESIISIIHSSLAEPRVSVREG

Take `CCN(CC)CCCCCCCCOC(=O)c1cc(OC)c(OC)c(OC)c1`: the IC50 – broadly, the concentration that inhibits the measured activity by half – in [1] is 15.1 µM (active).

Consider `O=[N+]([O-])c1cccc(S(=O)(=O)Nc2ccc(Cc3ccncc3)cc2)c1`, for which, in [1], the IC50 was 10.5 µM (active).

Consider `CC1CCCN(C(=O)CSCC(=O)Nc2nc(-c3cccs3)cs2)C1` (centres undefined), for which, in assay [2], the EC50 was 4.52 µM (active).

For the molecule `COc1ccc(NC(=O)C2CCCN2S(=O)(=O)c2ccc3c(c2)CCC(=O)N3)cc1` (centres undefined), the EC50 in assay [2] is 9.23 µM (active).

`Cc1[nH]c2ccccc2c1NC(=O)CN1CCN(c2cccc(C(F)(F)F)c2)CC1`: in assay [2], the EC50 was 4.61 µM (active).

Turning to `O=C(NCCc1ccccc1)c1ccc2c(=O)[nH]c3c(C(=O)NCC4CCCO4)sc(=S)n3c2c1` (centres undefined), in assay [1], the IC50 is 16.6 µM (active).

Consider `O=C(c1cccc(Cl)c1)N(Cc1cccs1)C1CCS(=O)(=O)C1` (centres undefined), for which the IC50 at Protein skinhead-1 was > 100 µM (inactive).

With `CCCCCOC(=O)c1ccc(N2C(=O)C3C4C=CC(C4)C3C2=O)cc1` (centres undefined), the IC50 on Fatty acid synthase [3] is 2.93 µM (active); at Fatty acid synthase [4] it was 2.43 µM (active).

For `O=C(Nc1cc([N+](=O)[O-])ccc1Cl)C(Sc1ccccc1)c1ccccc1` (centres undefined), the IC50 was 4.75 µM (active) at Fatty acid synthase [3] and 2.86 µM (active) at Fatty acid synthase [4].

Turning to `CC(C)CN1CCC(Oc2cccc(C(=O)NCCc3ccccc3)c2)CC1`, the IC50 in assay [1] is 10.7 µM (active).

For the molecule `Cc1nc(SCC(=O)NCc2ccc3c(c2)OCO3)c(C#N)c2c1CCCC2`, the EC50 in [2] is 5.41 µM (active).

As to `CCOc1ccccc1NC(=O)C(CC(C)C)NC(=O)C1CCC(C)CC1` (centres undefined), the IC50 at Protein skinhead-1 was > 100 µM (inactive).

As to `O=C(CCNC(=O)c1ccccc1)NN=Cc1ccc(Br)o1`, the IC50 in assay [5] was 10.2 µM (active).

As for `COc1ccc(S(=O)(=O)NC2CC3CCC2C3)cc1Cl` (centres undefined), in [6], the AC50 – broadly, the midpoint of the concentration-response curve, whichever way the signal moves – is 3.41 µM (active).

As for `COc1cc(/C=C2\SC(=S)N(Nc3ncc(C(F)(F)F)cc3Cl)C2=O)ccc1O`, the EC50 in [7] was 36 µM (active). The AC50 in assay [6] is 12.4 µM (active).

Take `COc1ccc([C@H]2CC(=O)C=C(c3ccc(F)cc3OCc3ccccc3)C2)cc1OC`: the values for the AC50 in assay [8], in assay [9] and in assay [10] were 7.36 µM (active), > 70 µM (inactive) and 16.1 µM (active), respectively.

Turning to `O=C(NCc1ccc2c(c1)OCO2)C1CC(c2ccc(Cl)cc2)=NO1` (centres undefined), the EC50 in assay [2] is 0.496 µM (active).

In the case of `CCN(CC)C(=S)Sc1c(-c2ccccc2)c2cc(Cl)ccc2[nH]c1=O`, the EC50 in assay [11] was > 53 µM (inactive). Moreover, the IC50 at Protein skinhead-1 is > 100 µM (inactive).

Take `CC(=O)c1cccc(-c2csc3ncnc(Sc4nnnn4C)c23)c1`: the AC50 was 4.72 µM (active) in assay [8], 53.4 µM (active) in [9], 15.5 µM (active) in [10] and 3.1 µM (active) on Paired box protein Pax-8.

Turning to `CCCn1c(NCc2c[nH]c3ccccc23)nc2ccccc21`, the EC50 in assay [2] was 5.89 µM (active).

On to `O=C(Nc1ccc(S(=O)(=O)Nc2nccs2)cc1)c1ccc(O)nc1`, for which the IC50 in [5] was 7.11 µM (active).

For the molecule `CCN(CC)P(=O)(c1n(CC)cc[n+]1CC)N(CC)CC`, in assay [5], the IC50 is 3.98 µM (active).

In the case of `O=C(NCc1ccco1)/C(=C\c1cccc([N+](=O)[O-])c1)NC(=O)c1ccco1`, the IC50 is 9.41 µM (active) on Fatty acid synthase [3] and 8.51 µM (active) at Fatty acid synthase [4].

Consider `CC(C)CCC(C(=O)NC(C)c1ccccc1)C(=O)NC(C)c1ccccc1` (centres undefined), for which, in assay [5], the IC50 is 11.7 µM (active).

Take `O=C(/C=C/c1cccc([N+](=O)[O-])c1)NCCSc1ccccc1`: the IC50 on Fatty acid synthase [3] was 4.58 µM (active); at Fatty acid synthase [4] it was 5.62 µM (active).

In the case of `CCC1Sc2ccccc2N(CC(=O)NCCC2=CCCCC2)C1=O` (centres undefined), the EC50 in assay [2] was 4.76 µM (active).

For the molecule `COc1ccc(-c2sc3ccccc3c2/C=C/c2ccncc2)cc1`, the AC50 in assay [12] was 4.57 µM (active); in assay [6] it was 3.9 µM (active).

With `Cc1c(CN2CCCC(C(=O)Nc3cccc(-n4cccn4)c3)C2)cnn1C` (centres undefined), the IC50 at Protein skinhead-1 was > 100 µM (inactive).

`O=C(OCc1ccc([N+](=O)[O-])cc1)C1CCN(S(=O)(=O)c2ccccc2)CC1`: the results for the IC50 at Fatty acid synthase [3] and on Fatty acid synthase [4] were 9.66 µM (active) and 9.2 µM (active), respectively.

As for `CN(CC(=O)Nc1ccc(Cl)c(C(F)(F)F)c1)C(=O)C1CC(=O)N(c2ccc3c(c2)OCCO3)C1` (centres undefined), the values for the IC50 on Fatty acid synthase [3] and at Fatty acid synthase [4] were 10.4 µM (active) and 11.3 µM (active), respectively.
